From ChEMBL document CHEMBL4152332, “Discovery and synthesis of novel magnolol derivatives with potent anticancer activity in non-small cell lung cancer” (Eur J Med Chem, 2018)

Experiments:
Mus musculus [1] = test: Toxicity in Balb/c mouse implanted with mouse C26 cells assessed as change in body weight at 100 mg/kg, po qd treated for 10 days and measured every 2 days (RVB = 16.4%); type: organism-based; conditions: in vivo
HCC827 = test: Antiproliferative activity against human HCC827 cells after 72 hrs by MTT assay; type: functional, cell-based; conditions: HCC827, 72 h
NCI-H1975 [2] = test: Antiproliferative activity against human NCI-H1975 cells after 72 hrs by MTT assay; type: functional, cell-based; conditions: NCI-H1975, 72 h
NCI-H460 = test: Antiproliferative activity against human H460 cells after 72 hrs by MTT assay; type: functional, cell-based; conditions: NCI-H460, 72 h
[3] = Antiproliferative activity against human SPC-A1 cells after 72 hrs by MTT assay; type: functional, cell-based; conditions: SPCA1, 72 h
NCI-H1650 = test: Antiproliferative activity against human NCI-H1650 cells after 72 hrs by MTT assay; type: functional, cell-based; conditions: NCI-H1650, 72 h
PC-9 = test: Antiproliferative activity against human PC9 cells after 72 hrs by MTT assay; type: functional, cell-based; conditions: PC-9, 72 h
NCI-H441 = test: Antiproliferative activity against human H441 cells after 72 hrs by MTT assay; type: functional, cell-based; conditions: NCI-H441, 72 h
NCI-H358 = test: Antiproliferative activity against human NCI-H358 cells after 72 hrs by MTT assay; type: functional, cell-based; conditions: NCI-H358, 72 h
[4] = Apparent aqueous solubility of the compound by HPLC analysis; type: physicochemical; conditions: aqueous solution
NCI-H1975 [5] = test: Cell cycle arrest in human NCI-H1975 cells assessed as accumulation at G0/G1 phase at 40 uM after 24 hrs by propidium iodide staining-based flow cytometric analysis (reference value: 56.11%); type: functional
NCI-H1975 [6] = test: Cell cycle arrest in human NCI-H1975 cells assessed as accumulation at S phase at 40 uM after 24 hrs by propidium iodide staining-based flow cytometric analysis (reference value: 22.93%); type: functional
NCI-H1975 [7] = test: Cell cycle arrest in human NCI-H1975 cells assessed as accumulation at G2/M phase at 40 uM after 24 hrs by propidium iodide staining-based flow cytometric analysis (reference value: 20.11%); type: functional
NCI-H1975 [8] = test: Induction of apoptosis in human NCI-H1975 cells assessed as early apoptotic cells at 40 uM after 48 hrs by annexin V/FITC-propidium iodide staining-based flow cytometric method ( Rvb = 6.09%); type: functional
NCI-H1975 [9] = test: Induction of apoptosis in human NCI-H1975 cells assessed as late apoptotic cells at 40 uM after 48 hrs by annexin V/FITC-propidium iodide staining-based flow cytometric method ( Rvb = 10.4%); type: functional
NCI-H1975 [10] = test: Induction of apoptosis in human NCI-H1975 cells assessed as necrotic cells at 40 uM after 48 hrs by annexin V/FITC-propidium iodide staining-based flow cytometric method ( Rvb = 1.01%); type: functional
NCI-H1975 [11] = test: Induction of apoptosis in human NCI-H1975 cells assessed as viable cells at 40 uM after 48 hrs by annexin V/FITC-propidium iodide staining-based flow cytometric method ( Rvb = 82.5%); type: functional; conditions: NCI-H1975, 48 h, read-out: Activity
[12] = Antitumor activity against mouse C26 cells implanted in Balb/c mouse assessed as tumor growth inhibition at 100 mg/kg, po qd and measured every 2 days relative to control; type: functional; conditions: 48 h, read-out: TGI
Mus musculus [13] = test: Toxicity in Balb/c mouse xenografted with human NCI-H1975 cells assessed as change in body weight at 100 mg/kg, po qd treated for 18 days and measured every 2 days after compound dosing ( Rvb = 2.89%); type: organism-based; conditions: in vivo
Mus musculus [14] = test: Toxicity in Balb/c mouse xenografted with human NCI-H1975 cells assessed as change in body weight at 20 mg/kg, iv treated every 2 days for 9 days and measured every 2 days after compound dosing ( Rvb = 2.89%); type: organism-based; conditions: in vivo
Mus musculus [15] = test: Toxicity in Balb/c mouse xenografted with human NCI-H1975 cells assessed as mouse death at 100 mg/kg, po qd treated for 18 days and measured every 2 days after compound dosing; type: organism-based; conditions: in vivo
Mus musculus [16] = test: Toxicity in Balb/c mouse xenografted with human NCI-H1975 cells assessed as mouse death at 20 mg/kg, iv treated every 2 days for 9 days and measured every 2 days after compound dosing; type: organism-based; conditions: in vivo
NCI-H1975 [17] = test: Antitumor activity against human NCI-H1975 cells xenografted in Balb/c mouse assessed as change in tumor mass at 100 mg/kg, po qd treated for 18 days and measured every 2 days after compound dosing relative to control; type: functional
NCI-H1975 [18] = test: Antitumor activity against human NCI-H1975 cells xenografted in Balb/c mouse assessed as change in tumor mass at 20 mg/kg, iv treated every 2 days for 9 days and measured every 2 days after compound dosing relative to control; type: functional
Mus musculus [19] = test: Toxicity in Balb/c mouse implanted with mouse C26 cells assessed as mouse death at 100 mg/kg, po qd treated for 10 days; type: organism-based; conditions: in vivo, 240 h

`C=CCc1ccc(O)c(-c2ccc(O)c(CC=C)c2)c1` [HONOKIOL] gave an Activity (Mus musculus [1]) of 6.92%, an IC50 (HCC827) of 33.9 µM and an IC50 (NCI-H1975 [2]) of 30.2 µM. It also gave an IC50 (NCI-H460) of 38.5 µM, an IC50 [3] of 39 µM and an IC50 (NCI-H1650) of 37.4 µM. The IC50 (PC-9) was 36.7 µM, the IC50 (NCI-H441) was 33.3 µM and the IC50 (NCI-H358) was 31.6 µM. For the same molecule, the solubility [4] was under 10 µg/mL, the Activity (NCI-H1975 [5]) was 67.42% and the Activity (NCI-H1975 [6]) was 6.54%. For the same molecule, the Activity (NCI-H1975 [7]) was 18.55%, the Activity (NCI-H1975 [8]) was 43.8% and the Activity (NCI-H1975 [9]) was 7.97%. For the same molecule, the Activity (NCI-H1975 [10]) was 0.87%, the viability at 40 µM (NCI-H1975 [11]) was 47.4% and the inhibition in vivo at 100 mg/kg [12] was 16.7%. The Activity (Mus musculus [13]) was 1.38%, the Activity (Mus musculus [14]) was 6.1% and the Activity (Mus musculus [15]) was “Non-Toxic”. The Activity (Mus musculus [16]) was “Non-Toxic”, the Activity (NCI-H1975 [17]) was 11.8% and the Activity (NCI-H1975 [18]) was 73%. The Activity (Mus musculus [19]) was “Non-Toxic”.
